This is an account of results in ChEMBL document CHEMBL4002612, “Study of antileishmanial activity of 2-aminobenzoyl amino acid hydrazides and their quinazoline derivatives” (Bioorg Med Chem Lett, 2017).

In data set [1] the test system is Leishmania aethiopica. The experiment in a line: Antileishmanial activity against promastigote stage of Leishmania aethiopica assessed as parasite growth inhibition after 24 hrs by Alamar blue assay. The class given is functional. On the technique in general: The colour change of resazurin is a common sign of viable cells or microbes.
The test system of data set [2] is Mus musculus. The experiment in a line: Acute toxicity in mouse assessed as change in spleen texture at 100 mg/kg, ip by microscopic method. The class given is organism-based. The note with it: in vivo.
Data set [3] relates to Mus musculus. The experiment in a line: Acute toxicity in mouse assessed as change in body weight at 25 to 250 mg/kg/day administered as single dose via oral gavage measured after 3 days. The class given is organism-based. To be noted: in vivo, 72 h.
The subject of data set [4] is Mus musculus. The data set is described as follows: Acute toxicity in mouse assessed as change in spleen texture at 250 mg/kg/day administered as single dose via oral gavage by microscopic method. The note with it: in vivo. The class given is organism-based.
Data set [5] has as its system Mus musculus. The experiment in a line: Acute toxicity in mouse assessed as change in kidney texture at 250 mg/kg/day administered as single dose via oral gavage by microscopic method. To be noted: in vivo. The class given is organism-based.
Data set [6] concerns Mus musculus. The experiment in a line: Acute toxicity in mouse assessed as mortality at 25 to 250 mg/kg/day administered as single dose via oral gavage measured after 3 days. The class given is organism-based. The note with it: in vivo, 72 h.
For data set [7], the system named is Mus musculus. The experiment in a line: Acute toxicity in mouse assessed as change in liver texture at 250 mg/kg/day administered as single dose via oral gavage by microscopic method. The note with it: in vivo. The class given is organism-based.
For data set [8], the system named is Mus musculus. The experiment in a line: Acute toxicity in mouse assessed as change in liver texture at 100 mg/kg, ip by microscopic method. The class given is organism-based. The note with it: in vivo.
For data set [9], the system named is Mus musculus. The experiment in a line: Acute toxicity in mouse assessed as change in kidney texture at 100 mg/kg, ip by microscopic method. The class given is organism-based. To be noted: in vivo.
Data set [10] concerns Mus musculus. The experiment in a line: Acute toxicity in mouse assessed as mortality up to 100 mg/kg, ip after 7 days. The class given is organism-based. The note with it: in vivo, 168 h.
The test system of data set [11] is Leishmania aethiopica. The experiment in a line: Potency index, ratio of mitefosine IC50 to test compound IC50 for promastigote stage of Leishmania aethiopica. The class given is functional.

For orientation: IC50 means the concentration that inhibits the measured activity by half.

Take `O=C(CN1C(=O)c2ccccc2NC1c1ccc2c(c1)OCO2)N/N=C/c1ccc2c(c1)OCO2` (centres undefined): the concentration for half-maximal inhibition (IC50) with Leishmania aethiopica [1] came to 12 µM.
As to `NNC(=O)C(Cc1ccccc1)NC(=O)c1ccccc1N` (centres undefined), the IC50 in the data set with Leishmania aethiopica [1] was found to be 2.9 µM.
The same measure, in the same setting: the value for `O=C(CCN1C(=O)c2ccccc2NC1c1ccccc1)N/N=C/c1ccccc1` (centres undefined) was 12.6 µM.
As for `O=C(CNC(=O)c1ccccc1/N=C/c1ccc(Cl)cc1)N/N=C\c1ccc(Cl)cc1`, the Activity result with Mus musculus [2], in the data set on Mus musculus [3], with Mus musculus [4], in the data set on Mus musculus [5], in the data set with Mus musculus [6] and in the data set on Mus musculus [7] was “Non-Toxic” throughout. Besides, the Activity entry in the data set with Mus musculus [8], in the data set on Mus musculus [9] and in the data set on Mus musculus [10] was “Non-Toxic” throughout. Also, the half-inhibitory concentration (IC50) in the data set with Leishmania aethiopica [1] is 0.052 µM.
In the case of `CC(C(=O)N/N=C/c1ccco1)N1C(=O)c2ccccc2NC1c1ccco1` (centres undefined), the IC50 in the data set with Leishmania aethiopica [1] is 10.7 µM.
Still for that read-out and setting: the value for `O=C(CCNC(=O)c1ccccc1/N=C/c1ccc(Cl)cc1)N/N=C/c1ccc(Cl)cc1` was 4.34 µM; that for `COC(=O)C(Cc1ccccc1)NC(=O)c1ccccc1N` (centres undefined) was 15.6 µM.
Still for that read-out and setting: to `O=C(CCCN1C(=O)c2ccccc2NC1c1ccco1)N/N=C/c1ccco1` (centres undefined) belongs 10.4 µM; to `COC(=O)CCCNC(=O)c1ccccc1N`, 17.3 µM; to `COc1ccc(/C=N/NC(=O)CN2C(=O)c3ccccc3NC2c2ccc(OC)cc2)cc1` (centres undefined), 9.07 µM.
Still for that read-out and setting: to `COC(=O)CCCCCNC(=O)c1ccccc1N` belongs 21.3 µM; to `O=C(N/N=C/c1ccco1)C(Cc1ccccc1)N1C(=O)c2ccccc2NC1c1ccco1` (centres undefined), 9.05 µM.
For `COC(=O)C(C)NC(=O)c1ccccc1N` (centres undefined), the 50% inhibitory concentration (IC50) in the data set on Leishmania aethiopica [1] was 23 µM.
Still for that read-out and setting: the value for `COC(=O)CCNC(=O)c1ccccc1N` was 26.4 µM.
Turning to `NNC(=O)CNC(=O)c1ccccc1N`, the Activity result with Mus musculus [2], with Mus musculus [3], in the data set with Mus musculus [4], in the data set with Mus musculus [5], with Mus musculus [6] and in the data set on Mus musculus [7] was “Non-Toxic” throughout. In addition, the Activity result with Mus musculus [8], in the data set on Mus musculus [9] and with Mus musculus [10] was “Non-Toxic” in each case. The IC50 in the data set on Leishmania aethiopica [1] amounted to 0.127 µM.
Turning to `O=C(N/N=C/c1ccc(Cl)cc1)C(Cc1ccccc1)N1C(=O)c2ccccc2NC1c1ccc(Cl)cc1` (centres undefined), the IC50 in the data set with Leishmania aethiopica [1] was 10.1 µM.
On the same count and under the same terms, to `C[C@@H]1[C@H](O)[C@@H](C)/C=C/C=C/C=C/C=C/C=C/C=C/C=C/[C@H](O[C@@H]2O[C@H](C)[C@@H](O)[C@H](N)[C@@H]2O)C[C@@H]2O[C@](O)(C[C@@H](O)C[C@@H](O)[C@H](O)CC[C@@H](O)C[C@@H](O)CC(=O)O[C@H]1C)C[C@H](O)[C@H]2C(=O)O.C[C@H](CCC(=O)O)[C@H]1CC[C@H]2[C@@H]3CC[C@@H]4C[C@H](O)CC[C@]4(C)[C@H]3C[C@H](O)[C@]12C` belongs 0.035 µM; to `O=C(CCCCCN1C(=O)c2ccccc2NC1c1ccc2c(c1)OCO2)N/N=C/c1ccc2c(c1)OCO2` (centres undefined), 9.33 µM.
Still for that read-out and setting: the value for `COC(=O)CNC(=O)c1ccccc1N` was 29.2 µM.
On to `CC(NC(=O)c1ccccc1N)C(=O)NN` (centres undefined), for which the Activity result with Mus musculus [2], in the data set with Mus musculus [3], in the data set with Mus musculus [4], with Mus musculus [5], in the data set on Mus musculus [6] and with Mus musculus [7] was “Non-Toxic” in each case. Further, the Activity entry with Mus musculus [8], with Mus musculus [9] and in the data set with Mus musculus [10] was “Non-Toxic” each time. Also, the half-inhibitory concentration (IC50) with Leishmania aethiopica [1] stood at 0.185 µM.
With `NNC(=O)CCCCCNC(=O)c1ccccc1N`, the Activity entry in the data set with Mus musculus [2], with Mus musculus [3], with Mus musculus [4], in the data set with Mus musculus [5], with Mus musculus [6] and in the data set with Mus musculus [7] was “Non-Toxic” throughout. Besides, the Activity entry in the data set with Mus musculus [8], in the data set with Mus musculus [9] and in the data set on Mus musculus [10] was “Non-Toxic” throughout. In the data set on Leishmania aethiopica [1], the IC50 was found to be 0.051 µM. In addition, the “Ratio IC50” value in the data set on Leishmania aethiopica [11] is reported as 154.
For `O=C(CCCCCN1C(=O)c2ccccc2NC1c1ccco1)N/N=C/c1ccco1` (centres undefined), the half-inhibitory concentration (IC50) with Leishmania aethiopica [1] came out at 11.1 µM.
